The values that follow come from patent US20050244387A1, “Entomopathogenic nematodes and methods of their use” (priority 2004, published 2005).

Assay type in all cases: in vivo
Test [1] concerns Cyclocephala borealis grubs. As to the kind of experiment: Large field plot trial 5, golf course fairway. Conditions: Trial 5, Mansfield, Ohio, autumn 2001; nematodes 2.5 × 10^9 IJ/ha, imidacloprid 0.33 kg, trichlorfon 9.0 kg; applied September 11, data October 9. As to the method:
(§1) Four field plot trials (Trials 5-8) were conducted on natural populations of P. japonica and C. borealis, or both species if they occurred together. Trial 5 was conducted on a naturally occurring mixed population of P. japonica and C. borealis grubs on a fairway at Wooldridge Woods Golf Course in Mansfield, Ohio in autumn 2001. Plots measuring 3-m by 3-m and separated by 0.9-m alleyways were arranged in a complete randomized block design with five replications/treatment. All treatments including imidacloprid (Merit 75WP) and trichlorfon (Dylox 6.2G) were applied on the morning of September 11 as curative treatments. Liquid applications were made with a sprinkling can at a volume of 8 liters/plot. Nematodes were applied at 2.5×10^9 IJ/ha. The trichlorfon granules were applied using a Gandy Drop Spreader (Gandy Company, Owatonna, Minn.). Grub population consisted of 30% second and 70% third instar P. japonica, and 100% third instar C. borealis. Turf consisted of 70% Kentucky bluegrass and 30% annual bluegrass, topography level, height 2.5 cm, and had no thatch.
(§2) Efficacy data from all field trials were obtained from six, 18×18×7 cm deep samples removed from the middle of each plot. Soil from each square was lifted with a spade and placed in a plastic dishpan and the number of live grubs counted by hand sifting the soil and turf.
(§3) Data on the total numbers of surviving grubs from each plot were subjected to the analysis of variance following the log10 […] transformation using Statsoft (1999) for each trial and means were separated by Tukey's mean separation test at P=0.05. In cylinder studies, the number of surviving grubs from all cylinders were pooled by plot. […]. For predictability analysis, all data on the mean percentage control of all white grubs were pooled by treatment and subjected to the analysis of variance using Statsoft (1999) following arcsine transformation. Only trichlorfon was included in these analyses as it is applied as a curative treatment just like the nematodes.

Test [2] has as its system Popillia japonica grubs. Nature of the test: Large field plot trial 5, golf course fairway. To be noted: Trial 5, Mansfield, Ohio, autumn 2001, nematodes 2.5 × 10^9 IJ/ha, imidacloprid 0.33 kg, trichlorfon 9.0 kg, applied September 11, data October 9. As for the experimental part: as §1, §2, §3
Test [3] concerns second instar Popillia japonica grub populations. Nature of the test: Microplot (cylinder) field trials, Trials 1-4. To be noted: Ohio. As for the experimental part: Microplot trials consisted of field plots in which PVC cylinders, 20 cm inside diameter, were inserted to a depth of about 7 cm. Four microplot trials (Trials 14) were conducted on second instar P. japonica grubs.
P. japonica adults were caged in the PVC cylinders to obtain grub populations following the methods described by Klein et al. (2000). Adult beetles were lured to Trece Catch Can traps (Trece Inc., Adair, Okla.) using a feeding lure containing PEG (phenol ethyl propionate, eugenol, and geraniol) and collected. Twice, at 1-week intervals, 30 adults consisting of approximately 50% females (measured volumetrically) were placed in each cylinder and covered with a nylon 20 mesh screen to induce egg laying within the cylinder area. The ovipositing beetles were fed fresh apple slices dusted with Brewer's yeast twice a week. Fourteen days after the initial caging, the nylon screens were removed. The developing grub population was monitored until the larvae reached the second instar, when all curative treatments were applied.
Trials 1, 2, and 4 were located at the Ohio Agricultural Research and Development Center, Wooster, Ohio whereas trial 3 was located at the TrueGreen Technical Center in Delaware, Ohio. Trials 1, 2, and 4 were set up on 1.5-m by 0.9-m plots, separated by 0.9 m alleyways, arranged in a complete randomized block design with four replications/treatment. For these trials, turf consisted of 70% Kentucky bluegrass and 30% dicot and monocot weed species, with level topography and no thatch was observed. Soil was a silt loam, with 2.8% OM, pH 6.0, 11.4 CEC. Trial 3 was conducted on Kentucky bluegrass lawn using 2.44 by 2.44 m plots arranged in a completely randomized block design with 5 replications/treatment. Soil was also a silt loam. Supplemental irrigation was applied prior to treatments to optimize beetle egg hatch and maintain actively growing turfgrass at both locations.
The nematodes were applied in 100 ml of water at 2.5×10^9 IJs/ha as a curative treatment to each cylinder except for trial 3, in which they were applied at 5.0×10^9 IJs/ha in 7.6 liters of water per plot with a hand held sprinkling can. Chemical insecticides were included for comparison in three of the trials. In trial 1, halofenozide was applied at 1.61 kg active ingredient (a.i.)/ha on Jul. 13, 2000 as a preventive treatment prior to P. japonica egg laying with a CO2 sprayer and Teejet 8015 nozzles at 2.81 kg/cm^2 (40 psi) delivering 1630 liters/ha. In trial 2, imidacloprid (Merit 75 WP) was applied at 0.33 kg a.i./ha on July 14 and trichlorfon granules (Dylox 6.2G) at 9.0 kg a.i./ha with a shaker on September 14. In trial 3, trichlorofon was applied as in trial 2. All plots received post-application irrigation (see Table 2).
as §2, §3

For test [4], the system named is mixed populations of third instar Popillia japonica and Cyclocephala borealis grubs. As to the kind of experiment: Large field plot trials 6 and 7, Kentucky bluegrass lawn. Conditions: Ohio, autumn 2001, nematodes 2.5 × 10^9 IJs/ha, applied September 14, data October 9. As to the method:
Trials 6 and 7 were conducted on stands of Kentucky bluegrass naturally infested with mixed populations of mostly third instar P. japonica and C. borealis in autumn 2001. The 1.2 by 1.2-m plots were located at the TrueGreen Technical Center in Delaware, Ohio. The nematodes were applied at 2.5×10^9 IJs/ha in trial 6 and at 5.0×10^9 IJ/ha in trial 7 with a CO2 backpack sprayer with a 10 cm boom fitted with three 8005 LP flat fan nozzles at a volume of 813 liters/ha. Plots were arranged in a randomized complete block design with 5 replications/treatment for both trials.
as §2, §3

The subject of test [5] is white grubs, Popillia japonica and Cyclocephala borealis. Nature of the test: Pooled analysis of field trials (irrigation plus rainfall, predictability). To be noted: nematodes at 2.5×10^9 IJs/ha, trichlorfon curatively at standard rate; mean ± S.E.
Description: as §3

The mark [6] stands for this setting: Trial 2, 2001 Wooster, nematodes 2.5 × 10^9 IJs/ha Sept 12, imidacloprid 0.34 kg July 14, trichlorfon 9.0 kg Sept 12, observed Oct 10.
Setting [7] is: Trial 6, Columbus, trichlorfon 9.0 kg/ha.
Setting [8] is: Trial 7, Columbus, trichlorfon standard rate 9.0 kg.
Setting [9] is: Trial 3, 2001 Columbus, nematodes 5.0 × 10^9 IJs/ha, trichlorfon 9.0 kg, applied Sept 14, observed Oct 9.
[10] abbreviates: Trial 1, 2000 Wooster, nematodes 2.5 × 10^9 IJs/ha applied Sept 13, halofenozide 1.61 kg a.i./ha applied July 13, observed Oct 5.

Molecules are shown by their SMILES.

In the case of `O=[N+]([O-])NC1=NCCN1Cc1ccc(Cl)nc1` [Imidacloprid], in test [1], the “C. borealis % control” value is 47% and the “C. borealis Mean grubs/plot” value amounted to 3.8 ab grubs/plot. Besides, in test [2], the “P. japonica % Control” value is given as “no effect” and the “P. japonica Mean grubs/plot” value came to 17.8 a grubs/plot. The “P. japonica % Control” value in test [2] (listed as IMIDACLOPRID (MERIT 75 WP)) came to 0%. Further, in test [3] (setting [6]), the “% Control” value is listed as 98% and the Mean grubs/plot came out at 0.3 d grubs/plot.

Turning to `COP(=O)(OC)C(O)C(Cl)(Cl)Cl` (stereo not shown) [Trichlorfon], in test [1], the “C. borealis % control” value is 47% and the “C. borealis Mean grubs/plot” value is 3.8 b grubs/plot. In test [2], the “P. japonica % Control” value was 57% and the “P. japonica Mean grubs/plot” value came to 7.6 c grubs/plot. In test [4] (setting [7]), the “% Control” value is 0% and the Mean grubs/plot is reported as 11.7 a grubs/plot. Also, in test [4] (setting [8]), the “% Control” value worked out at 77% and the Mean grubs/plot came out at 4.0 b grubs/plot. For the same molecule, the “overall percent white grub control, pooled data across all trials” value in test [5] is reported as 50.33±13.5%. In test [3] (setting [6]), the “% Control” value is 92% and the Mean grubs/plot is on record as 1.3 cd grubs/plot. Besides, in test [3] (setting [9]), the “% Control” value is listed as 29% and the Mean grubs/plot turned out to be 6.4 ab grubs/plot.

Consider `CC(C)(C)N(NC(=O)c1ccc(Cl)cc1)C(=O)c1ccccc1` [Halofenozide], for which, in test [3] (setting [10]), the “% Control” value was 98% and the Mean grubs/plot amounted to 0.7 b grubs/plot.
